Measured values reported in ChEMBL document CHEMBL1158009, “Paclitaxel analogues from Taxus x media cv. Hicksii” (1999).

What was measured:
Tubulin = assay: Inhibition of microtubule assembly = assessed as ratio of ED50 for drug to ED50 for paclitaxel
MCF7 = assay: Cytotoxicity against human MCF7 cells assessed as ratio of ED50 for drug to ED50 for paclitaxel; type: functional
MCF7R = assay: Cytotoxicity against human MCF7R cells assessed as ratio of ED50 for drug to ED50 for paclitaxel; type: functional

| Compound | Ratio ED50 (Tubulin) | Ratio ED50 (MCF7) | Ratio ED50 (MCF7R) |
| --- | --- | --- | --- |
| C/C=C(\C)C(=O)O[C@H]1[C@@H]2[C@]3(OC(C)=O)CO[C@@H]3C[C@H](O)[C@@]2(C)C(=O)[C@H](OC(C)=O)C2=C(C)[C@@H](OC(=O)[C@H](O)[C@H](NC(=O)c3ccccc3)c3ccccc3)C[C@]1(O)C2(C)C [ISOCEPHALOMANNINE] | 1.1 | 12 |  |
| CCC(C)C(=O)N[C@H](c1ccccc1)[C@@H](O)C(=O)O[C@H]1C[C@@]2(O)[C@@H](OC(=O)c3ccccc3)[C@@H]3[C@]4(OC(C)=O)CO[C@@H]4C[C@H](O)[C@@]3(C)C(=O)[C@H](OC(C)=O)C(=C1C)C2(C)C (some centres not stated) | 6.7 | >10 |  |
| CC(=O)O[C@H]1C(=O)[C@@]2(C)[C@H]([C@H](OC(=O)c3ccccc3)[C@]3(O)C[C@H](OC(=O)[C@H](O)[C@H](NC(=O)/C=C/c4ccccc4)c4ccccc4)C(C)=C1C3(C)C)[C@]1(OC(C)=O)CO[C@@H]1C[C@@H]2O | 1.2 | 1.3 | 1.2 |
